Assay results: article PMC12042115 (mLife, 2025)
Read-outs that look alike come from different tables or passages of the source.

Tested on: wild‐type BCG cells
Format: cell-based, M. bovis BCG

SMILES: O=C(Oc1ccc(Cl)cc1)c1ccc(N2CCOCC2)c([N+](=O)[O-])c1 [GDI‐5755]
- ClpB upregulation (2‐day treated cells): 1.56 fold
- detected proteome downregulated (2‐day treatment, 2×MIC): ~ 37.9%
- ClpB upregulation (3‐day treated cells): 1.47 fold
- Mean_Ratio (GDI5755_3d vs DMSO_3d) (3 d): 0.7
- number of proteins accumulated (upregulated) (Day 2): 216 proteins
- proteome remaining downregulated into the third day (Day 2 and Day 3): 29.1%
- number of proteins accumulated (upregulated) (Day 3): 188 proteins
- EthA upregulation (GDI‐5755‐treated cells): > 1.4 fold
- Mean_Ratio GDI5755_3d: DMSO_3d (Table S5, BCG_0001 Chromosomal replication initiator protein DnaA): 0.8
- Mean_Ratio GDI5755_3d: DMSO_3d (Table S5, BCG_0066 Fatty-acid-coa ligase fadD34): 0.7
- Mean_Ratio GDI5755_3d: DMSO_3d (Table S5, BCG_0101c Serine hydroxy methyltransferase): 0.8
- Mean_Ratio GDI5755_3d: DMSO_3d (Table S5, BCG_0207 MCE-family protein mce1B): 0.7
- Mean_Ratio GDI5755_3d: DMSO_3d (Table S5, BCG_0208 MCE-family protein mce1C): 0.8
- Mean_Ratio GDI5755_3d: DMSO_3d (Table S5, BCG_0209 MCE-family protein mce1D): 0.7
- Mean_Ratio GDI5755_3d: DMSO_3d (Table S5, BCG_0210 MCE-family lipoprotein lprK): 0.7
- Mean_Ratio GDI5755_3d: DMSO_3d (Table S5, BCG_0211 MCE-family protein mce1F): 0.7
- Mean_Ratio GDI5755_3d: DMSO_3d (Table S5, BCG_0442 Probable fatty-acid-CoA ligase fadD30): 0.7
- Mean_Ratio GDI5755_3d: DMSO_3d (Table S5, BCG_0495c Enoyl-CoA hydratase echA2): 0.5
- Mean_Ratio GDI5755_3d: DMSO_3d (Table S5, BCG_0546c cmaA2): 0.7
- Mean_Ratio GDI5755_3d: DMSO_3d (Table S5, BCG_0547c UPF0336 protein): 0.8
- Mean_Ratio GDI5755_3d: DMSO_3d (Table S5, BCG_0591c Possible oxidoreductase): 0.8
- Mean_Ratio GDI5755_3d: DMSO_3d (Table S5, BCG_0692c Methoxy mycolic acid synthase 3 mmaA3): 0.6
- Mean_Ratio GDI5755_3d: DMSO_3d (Table S5, BCG_0693c Methoxy mycolic acid synthase 2 mmaA2): 0.7
- Mean_Ratio GDI5755_3d: DMSO_3d (Table S5, BCG_1048 UTP--glucose-1-phosphate uridylyltransferase): 0.7
- Mean_Ratio GDI5755_3d: DMSO_3d (Table S5, BCG_1203c Probable enoyl-CoA hydratase echA11): 0.7
- Mean_Ratio GDI5755_3d: DMSO_3d (Table S5, BCG_1311c Uncharacterized protein): 0.8
- Mean_Ratio GDI5755_3d: DMSO_3d (Table S5, BCG_1534 Macrolide-transport ATP-binding protein ABC transporter): 0.8
- Mean_Ratio GDI5755_3d: DMSO_3d (Table S5, BCG_1579c Mycocerosic acid synthase-like polyketide synthase): 0.7
- Mean_Ratio GDI5755_3d: DMSO_3d (Table S5, BCG_1619c Possible inv protein): 0.7
- Mean_Ratio GDI5755_3d: DMSO_3d (Table S5, BCG_1699 Possible chalcone synthase pks10): 0.8
- Mean_Ratio GDI5755_3d: DMSO_3d (Table S5, BCG_1896 Alanine and proline-rich secreted protein Apa): 0.6
- Mean_Ratio GDI5755_3d: DMSO_3d (Table S5, BCG_1922c Chorismate mutase): 0.7
- Mean_Ratio GDI5755_3d: DMSO_3d (Table S5, BCG_1923c Mycolyltransferase Ag85B): 0.7
- Mean_Ratio GDI5755_3d: DMSO_3d (Table S5, BCG_1962 Probable lipase lipD): 0.6
- Mean_Ratio GDI5755_3d: DMSO_3d (Table S5, BCG_2254 ER-bound oxygenase mpaB): 0.8
- Mean_Ratio GDI5755_3d: DMSO_3d (Table S5, BCG_2260 Malonyl CoA-acyl carrier protein transacylase fabD): 0.7
- Mean_Ratio GDI5755_3d: DMSO_3d (Table S5, BCG_2310 Probable aminotransferase): 0.8
- Mean_Ratio GDI5755_3d: DMSO_3d (Table S5, BCG_2317 Cutinase): 0.7
- Mean_Ratio GDI5755_3d: DMSO_3d (Table S5, BCG_2546c Putative peptidoglycan hydrolase): 0.8
- Mean_Ratio GDI5755_3d: DMSO_3d (Table S5, BCG_2550 ERCC4 domain-containing protein): 0.7
- Mean_Ratio GDI5755_3d: DMSO_3d (Table S5, BCG_2886c Possible penicillin-binding lipoprotein): 0.6
- Mean_Ratio GDI5755_3d: DMSO_3d (Table S5, BCG_2977 Methyltransferase FkbM domain-containing protein): 0.7
- Mean_Ratio GDI5755_3d: DMSO_3d (Table S5, BCG_3009c 3-isopropylmalate dehydratase large subunit): 0.6
- Mean_Ratio GDI5755_3d: DMSO_3d (Table S5, BCG_3111 alcohol dehydrogenase adhD): 0.8
- Mean_Ratio GDI5755_3d: DMSO_3d (Table S5, BCG_3296 LytR family transcriptional regulator): 0.8
- Mean_Ratio GDI5755_3d: DMSO_3d (Table S5, BCG_3375 Possible acid phosphatase): 0.8
- Mean_Ratio GDI5755_3d: DMSO_3d (Table S5, BCG_3658 Probable conserved lipoprotein lpqF): 0.8
- Mean_Ratio GDI5755_3d: DMSO_3d (Table S5, BCG_3731c Possible chalcone synthase pks11): 0.7
- Mean_Ratio GDI5755_3d: DMSO_3d (Table S5, BCG_3772 Lipid II isoglutaminyl synthase subunit MurT): 0.7
- Mean_Ratio GDI5755_3d: DMSO_3d (Table S5, BCG_3866c Mycolyltransferase Ag85A): 0.8
- Mean_Ratio GDI5755_3d: DMSO_3d (Table S5, BCG_3882c Trehalose-2-sulfate acyltransferase PapA2): 0.8
- Mean_Ratio GDI5755_3d: DMSO_3d (Table S6, BCG_0130 decarboxylase): 1.5
- Mean_Ratio GDI5755_3d: DMSO_3d (Table S6, BCG_0289c Heat stress-induced ribosome-binding protein A, acr2): 3.9
- Mean_Ratio GDI5755_3d: DMSO_3d (Table S6, BCG_0347c Acetoacetate decarboxylase): 1.3
- Mean_Ratio GDI5755_3d: DMSO_3d (Table S6, BCG_0389 Chaperone protein DnaK): 1.5
- Mean_Ratio GDI5755_3d: DMSO_3d (Table S6, BCG_0390 Protein GrpE/HSP-70 cofactor): 1.4
- Mean_Ratio GDI5755_3d: DMSO_3d (Table S6, BCG_0391 Chaperone protein DnaJ): 1.5
- Mean_Ratio GDI5755_3d: DMSO_3d (Table S6, BCG_0422c Chaperone protein ClpB): 1.5
- Mean_Ratio GDI5755_3d: DMSO_3d (Table S6, BCG_0463c Uncharacterized protein): 1.4
- Mean_Ratio GDI5755_3d: DMSO_3d (Table S6, BCG_0726c Possible conserved membrane protein mmpS5): 1.4
- Mean_Ratio GDI5755_3d: DMSO_3d (Table S6, BCG_0774 Possible protease IV sppA (Endopeptidase IV)): 1.4
- Mean_Ratio GDI5755_3d: DMSO_3d (Table S6, BCG_0909 Cyclase): 1.3
- Mean_Ratio GDI5755_3d: DMSO_3d (Table S6, BCG_0993 Bifunctional 2-hydroxyhepta-2,4-diene-1,7-dioate isomerase): 1.3
- Mean_Ratio GDI5755_3d: DMSO_3d (Table S6, BCG_1028c Probable acetyl-/propionyl-coa carboxylase, accD2): 1.4
- Mean_Ratio GDI5755_3d: DMSO_3d (Table S6, BCG_1037 Two-component sensor kinase MprB): 1.2
